Test results taken from patent publication US20240125767A1, “METHOD FOR EVALUATING DRUG TOXICITY” (Public University Corporation Yokohama City University, priority 2019, published 2024).

System: DILI patient-derived organoid (liver organoid from iPS cells 16-24)
Protocol: (§1) Each of iPS cells derived from human healthy person (1383D2; Kyoto University iPS Research Institute) and iPS cells derived from patients with drug-induced liver injury (16-24; Yokohama City University) were cultured at 5% CO2 and 37° C. for 3 days in a medium obtained by adding 1% B-27 Supplements (GIBCO), BMP4 (25 ng/ml) and CHIR99021 (8 μM) to DMEM/F-12 (Gibco) (10 ml), to induce mesodermal cells.
Each of iPS cells derived from human healthy person (1383D2; Kyoto University iPS Research Institute) and iPS cells derived from patients with drug-induced liver injury (16-24; Yokohama City University) were cultured at 5% CO2 and 37° C. for 5 days in a medium obtained by adding Wnt3a (50 ng/mL) and activin A (100 ng/ml) to a basal medium RPMI (FUJIFILM Corporation) (2 ml), to induce endodermal progenitor cells.
as §1, with “μM) to a basal mixed medium DMEM/F-12 (Gibco)” for “μM) to DMEM/F-12 (Gibco)”, “induce mesodermal progenitor cells. […]” for “induce mesodermal cells.”, “progenitor cells. […]” for “mesodermal cells.”

CC1(C)S[C@@H]2[C@H](NC(=O)[C@H](N)c3ccc(O)cc3)C(=O)N2[C@H]1C(=O)O [Amoxicillin trihydrate, amoxicillin trihydrate]
Toxicity to liver organoid produced using cells derived from a DILI patient, co-cultured with blood cells (result in words): DILI was not observed
